Data on ten molecules can be found in patent publication US10704076B2, “Multi-tiered high through-put screen for compounds effective against bacterial biofilm and compounds effective for inhibiting and eradicating bacterial biofilm” (University of Cincinnati, priority 2013, dated 2020).

Experiment [1] relates to P. aeruginosa. Nature of the experiment: HTS total bacterial growth assay (optical density OD560). The experiment is classed as cell-based, Pseudomonas aeruginosa. The settings on record: Pseudomonas aeruginosa, 10 point dose-response 0.1-50 μM, read-out: Total Bacteria Growth AC50. From the text: (§1) Each HTS tier consisted of: (i) primary screening, (ii) confirmation screening and (iii) dose-response curve screening. Each tier of HTS included three distinct biological process assays. The first assay was an optical density measurement of bacteria growth in the presence of each compound reported as a total bacteria growth. In the second assay, resazurin solution was used as an indicator of metabolic activity to measure the live bacteria in the biofilms, reported as live biofilm. The final assay was crystal violet staining, which indicated the amount of biofilm formation and the effect of each compound on this process, reported as total biofilm formation.
(§2) Briefly, stationary phase bacteria grown in L-broth were diluted 1:200 into fresh L-broth and 50 μM of each test compound. After 20-24 hours, the optical density (OD560) of each suspension was measured using Zeiss Plate::Vision with a 560 BP filter (560 nm, 2.5% light intensity, 1 mm focus to bottom of plate, and exposure time of 100 ms). To measure bacterial viability in the biofilm, 50 μl of a 5 mg/ml resazurin solution in L-broth was added to each well after washing 3 times with 50 μl of PBS. The plates were then incubated at 37° C. for 30 or 180 min for A. baumannii and P. aeruginosa biofilms, respectively. Fluorescence was measured using Zeiss Plate::Vision at excitation and emission wavelengths of 535 and 580 nm, 100 ms exposure time, 2.5% intensity and a 2 mm focus to the bottom of the biofilms. To assess biofilm formation, plates were washed 3 times with PBS and then 50 μl of 0.01% of crystal violet was added to each well to assess bacterial biofilm formation as described in a similar borosilicate tube assay by O'Toole and Kolter. After incubation at room temperature for 30 min and removal of the crystal violet solution by washing with PBS, 95% ethanol was added to solubilize the crystal violet followed by incubation for 20 min at room temperature. Finally, the optical density of each plate was determined using measured by Zeiss Plate::Vision using the same settings used to measure total bacterial growth. These 3 steps were used in each of the three tiers for the HTS process: (i) single point primary screening at 10 μM, (ii) triplicate confirmation of hits from (i) at 10 μM and (iii) determination of AC50 values in 10 point dose-response at a concentration range of 0.1-50 μM) in hits from (ii). The AC50 represents the concentration of compound that inhibits 50% of bacterial growth, bacterial viability, or biofilm formation. Genedata Screener® Assay Analyzer Software (Ver. 9.0.0 Standard) was used to analyze data from all assay tiers. Compounds with an AC50 of less than 20 μM in one of the biological assays from the dose response screen were subject to additional investigation.

Experiment [2] concerns P. aeruginosa biofilm. The experiment can be described thus: HTS total biofilm formation assay (crystal violet staining). The experiment is classed as cell-based, Pseudomonas aeruginosa. The settings on record: Pseudomonas aeruginosa, 10 point dose-response 0.1-50 μM.
Description: as §1, §2

The test system of experiment [3] is P. aeruginosa biofilm. The experiment can be described thus: HTS live biofilm assay (resazurin metabolic activity). The experiment is classed as cell-based. The settings on record: Pseudomonas aeruginosa, 10 point dose-response 0.1-50 μM.
Description: as §1, §2
On the technique in general: Resazurin is reduced to fluorescent resorufin, in cell work by metabolically active cells.

For experiment [4], the system named is P. aeruginosa biofilm. The experiment can be described thus: CLSM, co-culture of bacteria with compound (inhibition of biofilm formation). The experiment is classed as cell-based, Pseudomonas aeruginosa. The settings on record: for killing of residential bacteria, co-culture (CLSM, in words): 10 μM; for Co-culture of bacteria with compound: Killing: Y / —. As for the experimental part:
(§3) Broad spectrum agents (effective against all three bacterial species) and single agent compounds identified as HTS hits were investigated with CLSM confirmation of inhibition of biofilm formation (culture of bacteria with compounds) or killing of bacteria residing within an established biofilm (compound addition after culturing biofilm). To evaluate inhibition of P. aeruginosa biofilms, bacteria were sub-cultured into 10% L-broth and grown at 37° C. until the OD600 reached 0.25. The bacteria were further diluted 1:100 into a modified 0.5×M63 minimum media (50 mM KH2PO4, 7.5 mM (NH4)2SO4, 9 μM FeSO4, 0.5% casamino acids, 0.2% glucose, and 1 mM MgSO4). A. baumannii biofilms were also grown in 10% L-broth until the OD600 reached 0.05 but diluted 1:10 into 5% L-broth media. S. epidermidis biofilm cultures were grown. Briefly, the bacteria were grown in TSB until the OD600 reached 0.75, and a 1:100 dilution of the bacteria was sub-cultured into phosphate buffered saline (PBS). All of the biofilm bacterial cultures were grown in 96-well plate chambers (MatTek Corp., Ashland, Mass.) in the presence of 10 μM of each compound or DMSO as a control and incubated for 18 hrs at 37° C. To investigate the ability of compounds to kill bacteria within pre-existing biofilms, biofilms were grown under the same conditions, but without test compound. These biofilms were washed once with PBS and incubated an additional 24 hr at 37° C. in PBS containing 300 μM of each compound. All biofilm cultures were then washed twice with 100 μL of PBS and stained using the LIVE/DEAD® BacLight™ Bacterial Viability Kit (Invitrogen). Finally, biofilm images were obtained using a Zeiss LSM510 META Confocal Microscope (Carl Zeiss, Inc., Germany). A 488 nm laser was used in conjunction with a Plan-Apochromat 100×/1.4 Oil DIC objective. Z-stacks were 8 bit and measured 127.3 μm×127.3 μm×16.0 μm in size. The filters used were 505-530 and 620-680 IR, as the excitation and emission wavelengths for red fluorescence are 490 nm and 635 nm, respectively, and 480 nm and 500 nm for green fluorescence. Three dimensional images were generated using the “Projection” ability on LSM Image Browser software (v.1.4.0.121) or Zeiss LSM image browser software version 3.5 (Carl Zeiss, Inc., Germany), and Live/Dead calculations were conducted based upon these images using MacBiophotonics ImageJ following the guidelines in the cell counting guide by C. Labno {Rasband, 1997-2011 #25; Labno, #2} at the University of Chicago Integrated Light Microscopy Core. The thickness of the biofilm was calculated using Comstat software. A hit was defined as a >50% dead to live ratio.
(§4) The CLSM experiment was performed in one or two or all bacteria used in this study depending on its activity. For the validation of HTS hits, 10 μM of compound was added to each bacterial suspension and the resulting biofilm stained with LIVE/DEAD® BacLight™ Bacterial Viability Kit. The images were analyzed to determine the live and dead ratios of biofilm bacteria, the thickness of biofilms, and structural attributes of biofilms.

Experiment [5] has as its system P. aeruginosa established biofilm. Nature of the experiment: CLSM, effect of compound on the pre-existing biofilm. The experiment is classed as cell-based, Pseudomonas aeruginosa. The settings on record: 300 μM, 24 hr. How it is done: as §3, §4
Experiment [6] has as its system S. epidermidis established biofilm. The experiment can be described thus: Killing of established Se biofilm by compounds Se-1 through Se-16. The experiment is classed as cell-based, Staphylococcus epidermidis. The settings on record: 300 μM compound, X / O. The text has this: This Example illustrates efficacy of compounds Se-1 through Se-16 at inhibiting S. epidermidis biofilm formation and/or killing established S. epidermidis biofilms. Detailed methods, materials and data are set forth in Shea, Chloe, U of Cincinnati Masters Thesis “Effectiveness of Novel Compounds at Inhibiting and Killing P. aeruginosa and S. epidermidis Biofilms” published on Mar. 17, 2013, the entire disclosure of which is incorporated herein by this reference. FIG. 8 illustrates effective inhibition of Se biofilm formation. For these experiments, Se was co-cultured with 10 μM of compounds Se-1 through Se-16 (see Table 5 for compound names and Table 6 for compound structures). A-H represents the top view of the Se biofilm, while the sagittal view is shown in I-P. The control Se biofilm is shown in A/I. Se biofilm formation in the presence of 10 μM of compound Se-3, Se-4, Se-13, Se-14, Se-15 or Se-16 as shown in B/J, C/K, D/L, E/M, F/N, G/O, and H/P, respectively. FIG. 9 illustrates effective killing of established Se biofilm. For this experiment, Se biofilms were treated with 300 μM of compounds Se-1 through Se-16. A-H represents the top view of the Se biofilm, while the sagittal view is shown in I-P. The control Se biofilm is shown in A/I. Effective killing was defined as >50% dead bacteria.

Experiment [7] has as its system A. baumannii. Nature of the experiment: HTS total bacterial growth assay (optical density OD560). Format: cell-based, Acinetobacter baumannii. The settings on record: Acinetobacter baumannii, 10 point dose-response 0.1-50 μM, NS* = no sigmoid curve observed, read-out: Total Bacteria Growth AC50.
Description: as §1, §2

Experiment [8] has as its system A. baumannii biofilm. The experiment can be described thus: HTS total biofilm formation assay (crystal violet staining). The experiment is classed as cell-based, Acinetobacter baumannii. The settings on record: Acinetobacter baumannii, 10 point dose-response 0.1-50 μM.
Description: as §1, §2

For experiment [9], the system named is A. baumannii biofilm. The experiment can be described thus: HTS live biofilm assay (resazurin metabolic activity). The experiment is classed as cell-based, Acinetobacter baumannii. The settings on record: Acinetobacter baumannii, 10 point dose-response 0.1-50 μM.
Description: as §1, §2

Experiment [10] concerns A. baumannii biofilm. Nature of the experiment: CLSM, co-culture of bacteria with compound (inhibition of biofilm formation). Format: cell-based, Acinetobacter baumannii. As for the experimental part:
as §3, §4

Regarding `CC(C)(C)n1cc(C(=O)O)c(=O)c2cc(F)c(N3CCN(C(=S)S)CC3)nc21` [Compound 9, 1-(1,1-dimethylethyl)-1,4-dihydro-6-fluoro-4-oxo-7-(4-dithiocarboxypiperazin-1-yl)-1,8-Naphthyridinyl-3-carboxylic acid], the AC50 was found to be 27.7 µM in experiment [1], 3.6 µM in experiment [2] and 8.14 µM in experiment [3]. The “Co-culture of bacteria with compound: Inhibit biofilm formation” value in experiment [4] (CLSM, 10 μM compound, 18 hrs) is “failed to inhibit biofilm formation”. Besides, the “killing of established P. aeruginosa biofilm (CLSM, in words)” value in experiment [5] was “failed to kill bacteria within a biofilm”.
Consider `O=C(Nc1cccc(F)c1)c1ccccc1NS(=O)(=O)c1ccc(Br)cc1` [Se15, 2-[(4-bromophenyl)sulfonylamino]-N-(3-fluorophenyl)benzamide], for which the Killing result in [6] is given as “X (Effective killing was defined as >50% dead bacteria)”.
Regarding `O=C(O)c1cn(-c2ccc(F)cc2F)c2nc(N3CCC(O)CC3)c(F)cc2c1=O` [Compound 14, 1-(2,4-difluorophenyl)-6-fluoro-1,4-dihydro-4-oxo-7-(4-hydroxy-1-piperidinyl)-1,8-Naphthyridine-3-carboxylic acid], the AC50 in experiment [1] came out at 13.6 µM; in experiment [2], 13 µM; in [3], 80.1 µM. In addition, the “killing of residential bacteria, co-culture (CLSM, in words)” value in experiment [4] is “lethal to residential bacteria”. Besides, in [4] (CLSM, 10 μM compound, 18 hrs), the “Co-culture of bacteria with compound: Killing” value is recorded as “Y (A hit was defined as a >50% dead to live ratio)”.
As to `CCCCCCCCCCCCOCC[N+](CCO)(CCO)Cc1ccccc1` [Se4, 2-dodecoxyethyl-bis(2-hydroxyethyl)-(phenylmethyl)ammonium], the Killing entry in experiment [6] is reported as “X (Effective killing was defined as >50% dead bacteria)”.
On the same count and under the same terms, as for `N#C/C(=N\Nc1ccc(OC(F)(F)F)cc1)C(=O)c1cccs1` [Se12, (2E]-3-keto-3-(2-thienyl]-2-[[4-(trifluoromethoxy)phenyl]hydrazono]propionitrile], the entry is “X (Effective killing was defined as >50% dead bacteria)”.
`CCc1c(C)[nH]c(CC(=O)O)c1C` [Se14, 2-(4-ethyl-3,5-dimethyl-1H-pyrrol-2-yl]acetic acid]: the Killing entry in experiment [6] is recorded as “X (Effective killing was defined as >50% dead bacteria)”.
Still for that read-out and setting: under `CN(C)c1ccc(C(=C2C=CC(=[N+](C)C)C=C2)c2ccc(N(C)C)cc2)cc1` [Se13, [4-[bis(4-dimethylaminophenyl]methylene]-1-cyclohexa-2,5-dienylidene]-dimethyl-ammonium] stands “X (Effective killing was defined as >50% dead bacteria)”.
The same measure, in the same setting: as for `O=C(Nc1ccc(Cl)cc1)Nc1nnc(C(F)(F)F)s1` [Se10, 1-(4-chlorophenyl)-3-[5-(trifluoromethyl)-1,3,4-thiadiazol-2-yl]urea], the entry is “X (Effective killing was defined as >50% dead bacteria)”.
On to `NC1=CC(=O)c2nonc2C1=O` [Compound 2, 5-amino-2,1,3-Benzoxadiazole-4,7-dione], for which the AC50 in [7] was determined as 2210 nM; in experiment [1] it was 9.09 µM; in experiment [8] it was 3.15 µM; in experiment [2], 1.43 µM; in experiment [9], 3.21 µM; in experiment [3] it was 15.2 µM. Besides, the “killing of residential bacteria, co-culture (CLSM, in words)” value in [10] (10 μM) and in [4] was “effectively killed the residential bacteria” throughout. The “Co-culture of bacteria with compound: Killing” value in [10] (CLSM, 10 μM compound, 18 hrs, Y / —) was “Y (A hit was defined as a >50% dead to live ratio)”; in [4] (CLSM, 10 μM compound, 18 hrs) it was “Y (A hit was defined as a >50% dead to live ratio)”.
Consider `CN(C)c1ccc(CN2CCN(C(=O)Nc3ccc(C(F)(F)F)cc3)CC2)cc1` [Se3, 4-{[4-(dimethylamino]phenyl]methyl}-N-[4-(trifluoromethyl]phenyl]piperazine-1-carboxamide], for which the Killing entry in [6] is “X (Effective killing was defined as >50% dead bacteria)”.

For orientation: AC50 means the concentration at which the activity in the assay is half-maximal.
